In brackets after ≈: the same amount, converted by molar mass. Like-named read-outs stand apart in the source and are kept apart here.

Here are results for 13 compounds from patent US5767296A, “Deacetoxytaxol derivatives” (Daiichi Pharmaceutical Co., Ltd., priority 1994, dated 1998).

The subject of experiment [1] is P388. The experiment is described as follows: Antitumor effect by MTT assay, P388 tumor cells. The experiment is classed as cell-based. To be noted: Mus musculus, read-out: GI50 Value. How it is done:
(§1) Each of three tumor cells, P388, PC-6 and PC-12, were inoculated in a 96-well microplate in amounts of 5.0×10^2 cells/150 μl/well of P388, 5.0×10^3 cells/150 μl/well of PC-6, and 1.0×10^3 cells/150 μl/well of PC-12, and after 2 hours in the case of P388 or after 24 hours in the cases of PC-6 and PC-12, test compound was added to the well in an amount of 50 μl/well in each case. Cells were cultivated for 3 days. Then, a 5 mg/ml solution of MTT [3-(4,5-dimethylthiazol-2-yl)-2,5-diphenyl-2H-tetrazolium bromide] was added to the well in an amount of 20 μl/well. After 4 hours, the culture liquid was removed, dimethylsulfoxide was added to the well in an amount of 150 μl/well, and the absorbance at 540 nm was measured. The antitumor effect was determined in terms of a concentration of the test compound required for suppressing the cell growth in the medicated group to 50% of the cell growth in the control group, i.e., a GI50 value (ng/ml).
(Tetrazolium dyes change colour on reduction, which living cells bring about.)

The subject of experiment [2] is PC-6. The experiment is described as follows: Antitumor effect by MTT assay, PC-6 tumor cells. The format is cell-based. Particulars: Homo sapiens, read-out: GI50 Value. As for the experimental part: as §1
Experiment [3] concerns PC-12. The experiment is described as follows: Antitumor effect by MTT assay, PC-12 tumor cells. The experiment is classed as cell-based. Particulars: Rattus norvegicus, read-out: GI50 Value. As for the experimental part: as §1
The subject of experiment [4] is microtubules. Particulars: background art; cited from earlier work.
Experiment [5] has as its system cancers of digestive tracts, in particular, the cancer of large intestine. Particulars: background art; cited from earlier work.
Experiment [6] deals with tumor. To be noted: background art; cited from earlier work.

Take `CCC(=O)O[C@@]12CO[C@@H]1C[C@H](O)[C@@]1(C)C(=O)C(CCN3CCOCC3)C3=C(C)[C@@H](OC(=O)C(O)C(C=C(C)C)NC(=O)OC(C)(C)C)C[C@@](O)([C@@H](OC(=O)c4ccccc4)[C@H]21)C3(C)C` (single isomer, unassigned) [Example 33 Isomer B, 13-O-[3-(tert-Butoxycarbonylamino)-2-hydroxy-5-methyl-4-hexenoyl]-10-deacetoxy-4-deacetyl-10-(2-morpholinoethyl)-4-O-propionylbaccatin III]: the GI50 – broadly, the concentration at which growth is held to half of that of the control – in experiment [1] (P388, 72 h) worked out at 0.69 ng/mL (≈ 0.769 nM); in experiment [2] (PC-6, 72 h) it was 4.13 ng/mL (≈ 4.6 nM); in experiment [3] (PC-12, 72 h) it was 4.16 ng/mL (≈ 4.64 nM).
The like results for `COC(=O)CCC1C(=O)[C@@]2(C)[C@H]([C@H](OC(=O)c3ccccc3)[C@]3(O)C[C@H](OC(=O)[C@H](O)[C@@H](NC(=O)OC(C)(C)C)c4ccccc4)C(C)=C1C3(C)C)[C@]1(OC(C)=O)CO[C@@H]1C[C@@H]2O` (stereo partly drawn) [Example 7, 13-O-[(2R,3S)-3-(tert-Butoxycarbonylamino)-2-hydroxy-3-phenylpropionyl]-10-deacetoxy-10-(2-methoxycarbonylethyl)baccatin III] were, in that order, 3.3 ng/mL (≈ 3.76 nM), 0.771 ng/mL (≈ 0.878 nM) and 24.4 ng/mL (≈ 27.8 nM).
Take `C=CCC1C(=O)[C@@]2(C)[C@H]([C@H](OC(=O)c3ccccc3)[C@]3(O)C[C@H](OC(=O)[C@H](O)[C@@H](NC(=O)OC(C)(C)C)c4ccccc4)C(C)=C1C3(C)C)[C@]1(OC(C)=O)CO[C@@H]1C[C@@H]2O` (stereo partly drawn) [Example 16, 10-Allyl-13-O-[(2R,3S)-3-(tert-butoxycarbonylamino)-2-hydroxy-3-phenylpropionyl]-10-deacetoxybaccatin III]: the GI50 is 1.16 ng/mL (≈ 1.39 nM) in experiment [1] (P388, 72 h); 0.677 ng/mL (≈ 0.814 nM) in experiment [2] (PC-6, 72 h); 7.87 ng/mL (≈ 9.46 nM) in experiment [3] (PC-12, 72 h).
The like results for `CC(=O)O[C@@]12CO[C@@H]1C[C@H](O)[C@@]1(C)C(=O)C(CC=O)C3=C(C)[C@@H](OC(=O)[C@H](O)[C@@H](NC(=O)OC(C)(C)C)c4ccccc4)C[C@@](O)([C@@H](OC(=O)c4ccccc4)[C@H]21)C3(C)C` (stereo partly drawn) [Example 18, 13-O-[(2R,3S)-3-(tert-Butoxycarbonylamino)-2-hydroxy-3-phenylpropionyl]-10-deacetoxy-10-(formylmethyl)baccatin III] were, in that order, 1.19 ng/mL (≈ 1.43 nM), 0.983 ng/mL (≈ 1.18 nM) and 12.9 ng/mL (≈ 15.5 nM).
On to `CC(=O)O[C@@]12CO[C@@H]1C[C@H](O)[C@@]1(C)C(=O)C(CCN3CCOCC3)C3=C(C)[C@@H](OC(=O)[C@H](O)[C@@H](NC(=O)OC(C)(C)C)c4ccccc4)C[C@@](O)([C@@H](OC(=O)c4ccccc4)[C@H]21)C3(C)C` (stereo partly drawn) [Example 20, 13-O-[(2R,3S)-3-(tert-Butoxycarbonylamino)-2-hydroxy-3-phenylpropionyl]-10-deacetoxy-10-(2-morpholinoethyl)baccatin III], for which the GI50 in experiment [1] (72 h, P388, 3 days, MTT) was 3.07 ng/mL (≈ 3.39 nM); in experiment [2] (72 h, PC-6, 3 days, MTT), 0.603 ng/mL (≈ 0.666 nM); in experiment [3] (72 h, PC-12, 3 days, MTT), 13.5 ng/mL (≈ 14.9 nM).
For the compound `CCCC(=O)O[C@@]12CO[C@@H]1C[C@H](O)[C@@]1(C)C(=O)C(CCN3CCOCC3)C3=C(C)[C@@H](OC(=O)[C@H](O)[C@@H](NC(=O)OC(C)(C)C)c4ccccc4)C[C@@](O)([C@@H](OC(=O)c4ccccc4)[C@H]21)C3(C)C` (stereo partly drawn) [Example 24, 4-O-Butanoyl-13-O-[(2R,3S)-3-(tert-butoxycarbonylamino)-2-hydroxy-3-phenylpropionyl]-10-deacetoxy-4-deacetyl-10-(2-morpholinoethyl)baccatin III], the GI50 in experiment [1] (P388, 72 h) was found to be 0.845 ng/mL (≈ 0.906 nM); in experiment [2] (PC-6, 72 h), 1.67 ng/mL (≈ 1.79 nM); in experiment [3] (PC-12, 72 h) it was 4.99 ng/mL (≈ 5.35 nM).
With `C=CCC1C(=O)[C@@]2(C)[C@H]([C@H](OC(=O)c3ccccc3)[C@]3(O)C[C@H](OC(=O)[C@H](O)[C@@H](NC(=O)OC(C)(C)C)c4ccco4)C(C)=C1C3(C)C)[C@]1(OC(=O)CCC)CO[C@@H]1C[C@@H]2O` (stereo partly drawn) [Example 25, 10-Allyl-4-O-Butanoyl-13-O-[3-(tert-butoxycarbonylamino)-3-(2-furyl)-2-hydroxypropionyl]-10-deacetoxy-4-deacetylbaccatin III], the GI50 came to 0.226 ng/mL (≈ 0.266 nM) in experiment [1] (72 h, P388, 3 days, MTT); 0.771 ng/mL (≈ 0.907 nM) in experiment [2] (72 h, PC-6, 3 days, MTT); 1.34 ng/mL (≈ 1.58 nM) in experiment [3] (72 h, PC-12, 3 days, MTT).
For the compound `CCC(=O)O[C@@]12CO[C@@H]1C[C@H](O)[C@@]1(C)C(=O)C(CCN3CCOCC3)C3=C(C)[C@@H](OC(=O)[C@H](O)[C@@H](NC(=O)OC(C)(C)C)c4ccccc4)C[C@@](O)([C@@H](OC(=O)c4ccccc4)[C@H]21)C3(C)C` (stereo partly drawn) [Example 26, 13-O-[(2R,3S)-3-(tert-butoxycarbonylamino)-2-hydroxy-3-phenylpropionyl]-10-deacetoxy-4-deacetyl-10-(2-morpholinoethyl)-4-O-propionylbaccatin III], the concentration for 50% growth inhibition (GI50) amounted to 1.07 ng/mL (≈ 1.16 nM) in experiment [1] (P388, 72 h); 1.22 ng/mL (≈ 1.33 nM) in experiment [2] (PC-6, 72 h); 5.64 ng/mL (≈ 6.14 nM) in experiment [3] (PC-12, 72 h).
In the case of `CCC(=O)O[C@@]12CO[C@@H]1C[C@H](O)[C@@]1(C)C(=O)C(CCN3CCOCC3)C3=C(C)[C@@H](OC(=O)[C@H](O)[C@@H](NC(=O)OC(C)(C)C)c4ccco4)C[C@@](O)([C@@H](OC(=O)c4ccccc4)[C@H]21)C3(C)C` (stereo partly drawn) [Example 31, 13-O-[(2R,3S)-3-(tert-Butoxycarbonylamino)-3-(2-furyl)-2-hydroxypropionyl]-10-deacetoxy-4-deacetyl-10-(2-morpholinoethyl)-4-O-propionylbaccatin III], the GI50 in experiment [1] (P388, 72 h) is 0.136 ng/mL (≈ 0.15 nM); in experiment [2] (PC-6, 72 h) it was 1.03 ng/mL (≈ 1.13 nM); in experiment [3] (PC-12, 72 h), 1.26 ng/mL (≈ 1.39 nM).
For `CCOC(=O)O[C@@]12CO[C@@H]1C[C@H](O)[C@@]1(C)C(=O)C(CCN3CCOCC3)C3=C(C)[C@@H](OC(=O)[C@H](O)[C@@H](NC(=O)OC(C)(C)C)c4ccccc4)C[C@@](O)([C@@H](OC(=O)c4ccccc4)[C@H]21)C3(C)C` (stereo partly drawn) [Example 35, 13-O-[(2R,3S)-3-(tert-Butoxycarbonylamino)-2-hydroxy-3-phenylpropionyl]-10-deacetoxy-4-deacetyl4-O-ethoxycarbonyl-10-(2-morpholinoethyl)baccatin III], the GI50 in experiment [1] (P388, 72 h) is 0.729 ng/mL (≈ 0.78 nM); in experiment [2] (PC-6, 72 h) it was 1.83 ng/mL (≈ 1.96 nM); in experiment [3] (PC-12, 72 h) it was 2.95 ng/mL (≈ 3.15 nM).
With `CC1=C2C(CCN3CCOCC3)C(=O)[C@@]3(C)[C@H]([C@H](OC(=O)c4ccccc4)[C@](O)(C[C@@H]1OC(=O)[C@H](O)[C@@H](NC(=O)OC(C)(C)C)c1ccccc1)C2(C)C)[C@]1(OC(=O)C2CC2)CO[C@@H]1C[C@@H]3O` (stereo partly drawn) [Example 36, 13-O-[(2R,3S)-3-(tert-butoxycarbonylamino)-2-hydroxy-3-phenylpropionyl]-4-O-cyclopropylcarbonyl-10-deacetoxy-10-(2-morpholinoethyl)baccatin III], the 50% growth inhibitory concentration (GI50) was 0.505 ng/mL (≈ 0.542 nM) in experiment [1] (P388, 72 h); 1.64 ng/mL (≈ 1.76 nM) in experiment [2] (PC-6, 72 h); 1.81 ng/mL (≈ 1.94 nM) in experiment [3] (PC-12, 72 h).
As for `CC(=O)O[C@H]1C(=O)[C@@]2(C)[C@H]([C@H](OC(=O)c3ccccc3)[C@]3(O)C[C@H](OC(=O)[C@H](O)[C@@H](NC(=O)c4ccccc4)c4ccccc4)C(C)=C1C3(C)C)[C@]1(OC(C)=O)CO[C@@H]1C[C@@H]2O` [Taxol], the GI50 in experiment [1] (P388, 72 h) worked out at 30.4 ng/mL (≈ 35.6 nM); in experiment [2] (PC-6, 72 h), 3.51 ng/mL (≈ 4.11 nM); in experiment [3] (PC-12, 72 h), 136 ng/mL (≈ 159 nM). The “inhibitory activity on the disassembly of microtubules in cytokinesis” value in experiment [4] was “inhibitory activity on the disassembly of microtubules in cytokinesis”. The “effectiveness on cancers of digestive tracts” value in experiment [5] is recorded as “weak”.
Turning to `CC(=O)O[C@@]12CO[C@@H]1C[C@H](O)[C@@]1(C)C(=O)[C@H](O)C3=C(C)[C@@H](OC(=O)[C@H](O)[C@@H](NC(=O)OC(C)(C)C)c4ccccc4)C[C@@](O)([C@@H](OC(=O)c4ccccc4)[C@H]21)C3(C)C` [Taxotel, reference compound], the GI50 in experiment [1] (72 h, P388, 3 days, MTT) is 5.3 ng/mL (≈ 6.56 nM); in experiment [2] (72 h, PC-6, 3 days, MTT), 1.72 ng/mL (≈ 2.13 nM); in experiment [3] (72 h, PC-12, 3 days, MTT), 49.7 ng/mL (≈ 61.5 nM). The “antitumor activity compared with taxol” value in experiment [6] is “equal to or higher than that of taxol”.
